From patent US8637467B2, “Pharmaceutical being used for treating cancer and fibrosis disease and the composition and uses thereof” (Wuxi MTLH Biotechnology Co., Ltd., priority 2008, dated 2014)
Where no end group is shown, it is not given here.

Legend:
[1] = system: liver cancer (H22); experiment: Xenograph liver cancer nude mice model (H22); assay type: in vivo; details: H22, 1 mg/kg
Method: Experimental animals: Female BALB/cA nude mice, age 35-40 days, weight 18-22 g, provided by Shanghai Silaike Experimental Animal Co. Ltd., certificate number: SOCK (Shanghai) 2007-0005.
The tumor of xenograph nude mice grew to 100˜300 mm^3. Tumor mice were divided into different groups for drug testing. In the experiment below, there were 12 nude mice in negative control group, and 6 nude mice in the group with tested drug. Tumor diameter was measured three times each week, and mice weight was measured at the same time.
T/C (relative tumor inhibition rate) % was calculated as below: • (1) tumor volume, TV, calculated as below: TV=½×a×b^2 • A and b are length and width. • (2) relative tumor volume, RTV, calculated as below: RTV=TVt/TV0. • TV0 ? is tumor volume at the beginning of drug use (d0), TVt is tumor volume at later time point. • (3) relative tumor inhibition rate T/C (%), calculate as below:
[formula] TRTV: treatment group RTV; CRTV: negative control RTV

[2] = system: Rat CC14 liver damage model; experiment: Rat CC14 liver damage model (chronic liver fibrosis); assay type: in vivo, SD rat; design: Liver parameters: unit not given here
Method: To evaluate the protective effect of peptide SEQ ID NO:1 on liver damage, we used chronic liver fibrosis model (rat CC14 model) for efficacy evaluation.
Rat CC14 liver damage model
(1) Control group: saline, sc, 2 ml/kg, 10 rats
(2) model group: 40% CC14, sc, 2 ml/kg, 17 rats
(3) Gan-li-xin group: 25 mg/kg, iv, 10 ml/kg, 15 rats
(4) Prevention, high dose group: 50 μg peptide SEQ ID NO:1/kg, iv, 10 ml/kg, 17 rats
(5) Prevention, low dose group: 10 μg peptide SEQ ID NO:1/kg, iv, 10 ml/kg, 17 rats
(6) Treatment, high dose group: 100 μg peptide SEQ ID NO:1/kg, iv, 10 ml/kg, 17 rats
(7) Treatment, high dose group: 20 μg peptide SEQ ID NO:1/kg, iv, 10 ml/kg, 17 rats
Except for control group, inject 40% CC14 subcutaneously twice (Tuesday, and Friday) every week in Group (2) to (6), drug volume (0.2 ml/100 g, the first time 0.5 ml/100 g). CC14 Model construction is 6 weeks. Parallel to the model construction, inject intravenously peptide SEQ ID NO:1 at 50 μg/kg and 10 μg/kg in group (4) and (5), respectively, once a day for 6 weeks. For Group (3), (6), and (7), starting from week 5, inject Gan-li-xin 25 mg/kg, peptide SEQ ID NO:1 at 100 μg/kg and 20 μg/kg, respectively, once a day, continuously for 2 weeks.
All rats were weighed once a week during model construction and drug injection. According to weight, the dose of drugs is adjusted. 24 hours after the last time of CC14 injection, liver weight parameters were examined.
Blood was extracted from femoral artery and serum was separated. The following parameters were examined: serum alanine aminotransferase (ALT), aspartate aminotransferase (AST), Bilirubin (TB), Alkaline phosphatase (ALP), total protein (TP), albumin (ALB), globulin (G), albumin/globulin ratio (A/G), glucose (GLU), total cholesterol (TCH), triglyceride (TG).
Liver homogenate: to examine cholesterol (TCH), triglyceride (TG), alanine aminotransferase (ALT), and aspartate aminotransferase (AST).
[…], dry at 110 C, examine Hydroxyproline (HPA).
Part of the liver is fixed in formalin for histology examination.

[3] = system: α-SMA protein; experiment: Western blot of α-SMA protein expression in HSC; assay type: cell-based, SD rat; details: FIG. 5
Method: HSC from SD rats were separated using centrifuging on gradient created by Pronase-collagenase and Nycodenz. HSC cells at 1.5×10^5/cm2 was plated at 6-well plate, or culture dish (100 mm diameter). The culture medium is DMEM with 20% serum from newborn calf. The purity of HSC cells was determined using Vitamin A self-fluorescence and anti-Desmin immunocytochemistry experiments. Cell viability was determined using trypan blue staining. First generation HSC's purity and viability were 90% and 95% respectively. HSC can self-activate if grown in non-ECM condition, which means HSC can express α-SMA, and Vitamin A drop disappears. After cell fusion, activated HSC is released with trypsin, and propagate.
Collect cells and add cell lysis buffer, extract total protein. Total protein amount was determined using Bradford assay. 40 μg total protein was examined using 10% SDS polyacrylamide gel. The gel was probed using monoclonal antibody against α-SMA.

[4] = Prevention, High dose 50 μg/kg iv, once a day for 6 weeks
[5] = Prevention, low dose 10 μg/kg iv, once a day for 6 weeks
[6] = Treatment, High dose 100 μg/kg iv, once a day for 2 weeks from week 5
[7] = Treatment, low dose 20 μg/kg iv, once a day for 2 weeks from week 5

Substance: SKVTKKYHEVLQLRPKTGVRGLHKSLTDVALEHHEECDCVCRGSTGG-OH (cysteines drawn unpaired) [Peptide SEQ ID NO:1]
- inhibition rate, tumor [1]: 67.8%
- ALB (albumin), serum [2, 4]: 20.8 ± 2.0 g/L
- ALP (alkaline phosphatase), serum [2, 4]: 266.3 ± 85.7 IU/L
- ALT (alanine aminotransferase), serum [2, 4]: 75 ± 29.4 IU/L
- AST (aspartate aminotransferase), serum [2, 4]: 236.8 ± 27.2 IU/L
- Bilirubin, serum [2, 4]: 3.3 ± 0.1 µmol/L
- GLU (glucose), serum [2, 4]: 6.5 ± 0.9 mmol/L
- Liver parameters [2, 4]: 4.3 ± 0.4
- Liver weight [2, 4]: 12.1 ± 2.5 g
- TCH (total cholesterol), serum [2, 4]: 1.9 ± 0.3 mmol/L
- TG (triglyceride), serum [2, 4]: 0.6 ± 0.1 mmol/L
- TP (total protein), serum [2, 4]: 68.3 ± 4.1 g/L
- hydroxyproline amount in rat liver [2, 4]: 0.216 ± 0.062 ug/mg wet weight
- ALB (albumin), serum [2, 5]: 18.8 ± 2.4 g/L
- ALP (alkaline phosphatase), serum [2, 5]: 304.3 ± 90.4 IU/L
- ALT (alanine aminotransferase), serum [2, 5]: 80.6 ± 21.3 IU/L
- AST (aspartate aminotransferase), serum [2, 5]: 248.8 ± 38.3 IU/L
- Bilirubin, serum [2, 5]: 3.3 ± 0.5 µmol/L
- GLU (glucose), serum [2, 5]: 6.2 ± 0.7 mmol/L
- Liver parameters [2, 5]: 4.1 ± 0.4
- Liver weight [2, 5]: 11.3 ± 2.5 g
- TCH (total cholesterol), serum [2, 5]: 1.6 ± 0.3 mmol/L
- TG (triglyceride), serum [2, 5]: 0.6 ± 0.2 mmol/L
- TP (total protein), serum [2, 5]: 66.4 ± 4.6 g/L
- hydroxyproline amount in rat liver [2, 5]: 0.192 ± 0.045 ug/mg wet weight
- ALB (albumin), serum [2, 6]: 19.7 ± 3.7 g/L
- ALP (alkaline phosphatase), serum [2, 6]: 216.5 ± 91.0 IU/L
- ALT (alanine aminotransferase), serum [2, 6]: 69.8 ± 31.3 IU/L
- AST (aspartate aminotransferase), serum [2, 6]: 219.6 ± 56.7 IU/L
- Bilirubin, serum [2, 6]: 2.9 ± 0.4 µmol/L
- GLU (glucose), serum [2, 6]: 6.3 ± 1.0 mmol/L
- Liver parameters [2, 6]: 4.0 ± 0.5
- Liver weight [2, 6]: 10.1 ± 3.2 g
- TCH (total cholesterol), serum [2, 6]: 2.1 ± 0.8 mmol/L
- TG (triglyceride), serum [2, 6]: 0.5 ± 0.2 mmol/L
- TP (total protein), serum [2, 6]: 70.4 ± 4.4 g/L
- hydroxyproline amount in rat liver [2, 6]: 0.165 ± 0.038 ug/mg wet weight
- ALB (albumin), serum [2, 7]: 18.8 ± 2.5 g/L
- ALP (alkaline phosphatase), serum [2, 7]: 357.1 ± 120.7 IU/L
- ALT (alanine aminotransferase), serum [2, 7]: 90.9 ± 37.3 IU/L
- AST (aspartate aminotransferase), serum [2, 7]: 260.0 ± 73.1 IU/L
- Bilirubin, serum [2, 7]: 3.3 ± 0.8 µmol/L
- GLU (glucose), serum [2, 7]: 6.1 ± 0.9 mmol/L
- Liver parameters [2, 7]: 4.4 ± 0.8
- Liver weight [2, 7]: 12.9 ± 4.7 g
- TCH (total cholesterol), serum [2, 7]: 1.6 ± 0.5 mmol/L
- TG (triglyceride), serum [2, 7]: 0.5 ± 0.2 mmol/L
- TP (total protein), serum [2, 7]: 69.1 ± 6.1 g/L
- hydroxyproline amount in rat liver [2, 7]: 0.222 ± 0.048 ug/mg wet weight
- steatosis and fat cavities in liver cells (histology) ([2]; prevention high dose group, 3 cases): 50-60%
- steatosis and fat cavities in liver cells (histology) ([2]; prevention high dose group, 5 cases): 60-80%
- steatosis and fat cavities in liver cells (histology) ([2]; prevention low dose group, all cases): 60-80%
- liver damage caused by CC14 in rat (summary) ([2]; serum biochemical parameters, liver hydroxyproline amount, liver pathological features): can improve liver damage caused by CC14 in rat
- steatosis and fat cavities in liver cells (histology) ([2]; treatment high dose group, 2 cases): Over 80%
- steatosis and fat cavities in liver cells (histology) ([2]; treatment high dose group, 2 cases with less steatosis): 50-60%
- steatosis and fat cavities in liver cells (histology) ([2]; treatment high dose group, 4 cases with even less steatosis): < 30%
- α-SMA protein expression (Western Blot) ([3]; after 48 hours): starts to decrease α-SMA protein expression
- α-SMA protein expression (Western Blot) ([3]; after 72 hours): significantly decrease α-SMA protein expression
